Laboratory results taken from article PMC10285300, “Abscisic acid mimic-fluorine derivative 4 alleviates water deficit stress by regulating ABA-responsive genes, proline accumulation, CO2 assimilation, water use efficiency and better nutrient uptake in tomato plants” (Frontiers in Plant Science, 2023).

Key:
Sl08g076960 = biological target: T1, Sl08g076960 (Solanum lycopersicum, UniProt A0A3Q7HTY9); experiment: PP2C inhibition assay (pNPP, […] nm), receptor-dependent inhibition of HAB1; assay type: biochemical; conditions: agonist; deltaN-HAB1 1 uM, receptor 2 uM, 25 mM pNPP, 10 mM MnCl2, Tris pH 8.0
T1 construct: gene LOC101268417; with Protein phosphatase 2C 16 (Arabidopsis thaliana)
T1 sequence (A0A3Q7HTY9 1-231): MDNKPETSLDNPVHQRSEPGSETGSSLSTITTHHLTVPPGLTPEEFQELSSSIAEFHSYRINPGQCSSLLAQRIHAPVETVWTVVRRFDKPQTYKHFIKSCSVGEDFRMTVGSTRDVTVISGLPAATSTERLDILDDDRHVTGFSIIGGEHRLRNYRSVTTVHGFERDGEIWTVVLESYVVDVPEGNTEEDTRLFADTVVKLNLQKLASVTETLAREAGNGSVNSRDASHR
T1 sequence (Q9CAJ0 172-511 partner limits assumed): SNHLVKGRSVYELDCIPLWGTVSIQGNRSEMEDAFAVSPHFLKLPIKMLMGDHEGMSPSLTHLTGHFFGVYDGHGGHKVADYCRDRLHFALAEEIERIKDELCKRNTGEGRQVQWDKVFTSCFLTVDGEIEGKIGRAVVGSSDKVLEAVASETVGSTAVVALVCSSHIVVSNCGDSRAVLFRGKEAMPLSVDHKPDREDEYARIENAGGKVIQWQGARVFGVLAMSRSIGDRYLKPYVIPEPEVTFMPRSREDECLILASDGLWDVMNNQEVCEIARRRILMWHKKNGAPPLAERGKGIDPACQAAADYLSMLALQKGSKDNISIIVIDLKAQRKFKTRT

ΔN-HAB1 = biological target: T2, ΔN-HAB1 (Arabidopsis thaliana, UniProt Q9CAJ0); experiment: phosphatase activity, […] nm, […] min; assay type: biochemical; conditions: 25 mM pNPP, 10 mM MnCl2, Tris pH 8.0
T2 sequence (Q9CAJ0 172-511 limits assumed): T1 sequence (Q9CAJ0 172-511 partner limits assumed)

CCCN1C(=O)CCc2cc(NS(=O)(=O)Cc3c(F)c(F)c(C)c(F)c3F)ccc21 [AMF4, N-(2-oxo-1-propyl-1,2,3,4-tetrahydroquinolin-6-yl)-1-(2,3,5,6-tetrafluoro-4-methylphenyl) methanesulfonamide]
PP2C activity at 1 or 10 μM (Sl08g076960): both PYL1-like tomato receptors were activated by AMF4, resulting in the inhibition of the PP2C

O=[N+]([O-])c1ccc(OP(=O)(O)O)cc1 [p-nitrophenyl phosphate]
phosphatase activity, 405 nm, 20 min (ΔN-HAB1): Phosphatase activity was measured using p-nitrophenyl phosphate (pNPP) as a substrate
